In patent publication EP4069710B1, “PD(I) COMPLEXES, PROCESS FOR THEIR PREPARATION AND USE THEREOF AS ANTITUMOUR AGENTS” (Universita' Ca' Foscari Venezia, priority 2019, dated 2021):

How the values were obtained:
Format in all cases: cell-based
A2780cis = assay: Antiproliferative activity, cell viability by CellTiter-Glo after 96 hours; settings: A2780cis (ovarian cancer), mean ± standard deviation of triplicate measurements
Method: (§1) Tecan analyser, mod. Infinite® M1000.
(§2) Tests were performed for the purpose of determining the inhibitory concentration (IC50) of a compound of the invention towards tumour cell lines and on a control cell line; for comparative purposes, the same tests were performed with the cisplatin compound.
(§3) The tested cell lines were: A2780, A2780cis, OVCAR5, OVCAR3 e KURAMOCHI (ovarian cancer), A549 (lung cancer), HeLa (cervical cancer), DLD1 (colon cancer) and MRC-5 (control; lung fibroblasts). The mother solutions were obtained in dimethyl sulfoxide for the Pd(I) compound and in H2O for cisplatin.
(§4) The cells were kept, according to the protocols indicated by the suppliers, at 37 °C in an atmosphere containing 5% carbon dioxide. About 500 cells were plated on 96 different well-plates and kept under such conditions for 96 hours.
(§5) The viability of the cells was determined, after treatment of the cells with a 1:1 CellTiter-Glo® solution (registered trademark of Promega Corp., Madison, Wisconsin, USA) and DPBS, with the Tecan Infinite® M1000 instrument. The IC50 values were calculated by the response curves to the dose. The means and standard deviations were obtained from triplicate measurements.

DLD1 = assay: as above; settings: DLD1 (colon cancer), mean ± standard deviation of triplicate measurements
Method: as §1, §2, §3, §4, §5

Kuramochi = assay: as above; settings: Kuramochi (ovarian cancer), mean ± standard deviation of triplicate measurements
Method: as §1, §2, §3, §4, §5

OVCAR3 = assay: as above; settings: OVCAR3 (ovarian cancer), mean ± standard deviation of triplicate measurements
Method: as §1, §2, §3, §4, §5

OVCAR5 = assay: as above; settings: OVCAR5 (ovarian cancer), mean ± standard deviation of triplicate measurements
Method: as §1, §2, §3, §4, §5

MRC-5 = assay: Antiproliferative activity on control cell line, cell viability by CellTiter-Glo after 96 hours; settings: MRC-5 (control; lung fibroblasts), mean ± standard deviation of triplicate measurements
Method: as §1, §2, §3, §4, §5

N.N.[Cl][Pt][Cl] [Cisplatin, cis-diamine-dichloroplatinum(II)] was tested, and the IC50 (A2780cis) was 43 ± 3 µM, the IC50 (DLD1) was 4.2 ± 0.5 µM and the IC50 (Kuramochi) was 1.7 ± 0.3 µM. It also gave an IC50 (OVCAR3) of 2.2 ± 0.1 µM, an IC50 (OVCAR5) of 5.2 ± 0.8 µM and an IC50 (MRC-5) of 14 ± 1 µM.
